According to patent publication US11091749B2, “Deimmunized lysostaphin and methods of use” (TRUSTEES OF DARTMOUTH COLLEGE, priority 2014, dated 2021):
Like-named read-outs stand apart in the source and are kept apart here. Where no end group is shown, it is not given here.

Experiments:
Assay in all cases: MHC II competition binding assay
[1] = biological target: DRB1*1301 (Homo sapiens, UniProt P01903+P01911, A100E/A169T/K41T/L162R/M171V/P40S/Q125H/Q178H/Q39Y/Q99D/R42S/S66N/T262R/W38E/Y61H)
Experimental: (§1) MHC Binding Assays. MHC II competition binding assays were performed using a 384-well high throughput assay as previously described (Salvat, et al. (2014) supra). Binding assays were performed for the eight alleles: DRB1*0101, 0301, 0401, 0701, 0801, 1101, 1301, and 1501. Briefly, 100 nM biotinylated control peptides composed of known peptide antigens for each MHC II allele were incubated in polypropylene 384-well plates with 50 nM purified recombinant MHC II protein and serial dilutions of LST or variant peptide fragments (100 μM to 10 nM). Peptide-MHC II complexes were captured from equilibrated solutions using the conformation specific anti-HLA-DR antibody L243 coated on high binding ELISA plates. Bound control peptide was quantified using the DELFIA streptavidin-Europium conjugate and time resolved fluorescence (SpectraMax Gemini Fluorescence Microplate Reader).

[2] = biological target: T1, DRB1*1501 (Homo sapiens, UniProt P01903+P01911)
T1 construct: purchased Benaroya Research Institute (Seattle, Wash.)
Experimental: as §1, with “MHC II competition binding assays were performed using a 384-well high throughput assay as previously described (Salvat, et al. (2014) supra). Binding assays were performed for the eight alleles: DRB1*0101, 0301, 0401, 0701, 0801, 1101, 1301, and 1501.” left out

[3] = biological target: DRB1*1101 (Homo sapiens, UniProt P01903+P01911, A100R/A169T/A87E/I96F/K41T/L162R/M171V/P40S/Q125H/Q178H/Q39Y/Q99D/R42S/S66Y/T262R/V115G/W38E)
Experimental: as §1

[4] = biological target: T2, DRB1*0301 (Homo sapiens, UniProt P01903+P01911, A100K/A102G/A103R/A169T/F55Y/I96L/K41T/L162R/M171V/P40S/Q125H/Q178H/Q39Y/R42S/S66N/T106N/T262R/W38E/Y61H)
T2 construct: purchased Benaroya Research Institute (Seattle, Wash.)
Experimental: as §1

[5] = biological target: DRB1*0801 (Homo sapiens, UniProt P01903+P01911, A100R/A103L/A169T/D86S/F76Y/H45Y/I96F/K41T/L162R/M171V/P40S/Q125H/Q178H/Q39Y/Q99D/R218S/R42G/S66Y/V115G/W38E)
Experimental: as §1

[6] = biological target: T3, DRB1*0101 (Homo sapiens, UniProt P01903+P01911, A100R/D57E/F55L/F60I/F76Y/I96L/L162R/M171V/P40L/Q125E/R42F/V115G/Y59C)
T3 construct: purchased Benaroya Research Institute (Seattle, Wash.)
Experimental: as §1

[7] = biological target: T4, DRB1*0401 (Homo sapiens, UniProt P01903+P01911, A100K/A169T/F76Y/I96L/K127E/L162R/M171V/N62H/P40V/Q125Y/R42H/S133A/S149N/S66Y/V115G/V209L/W38E)
T4 construct: purchased Benaroya Research Institute (Seattle, Wash.)
Experimental: as §1

[8] = biological target: DRB1*0701 (Homo sapiens, UniProt P01903+P01911, A100R/A102G/A103Q/D57E/D86V/E43K/F76Y/K127E/L162R/M171V/P40G/Q125H/Q99D/R33Q/R42Y/R54Q/S133A/S66F/T210M/V115G/Y107V/Y59L/Y89S)
Experimental: as §1

[9] = synthetic peptide competing with biotinylated control peptide, read-out: IC50 1501
[10] = synthetic peptide competing with biotinylated control peptide, read-out: IC50 1301
[11] = synthetic peptide competing with biotinylated control peptide, read-out: IC50 0301
[12] = synthetic peptide competing with biotinylated control peptide, read-out: IC50 0701
[13] = synthetic peptide competing with biotinylated control peptide, read-out: IC50 0101
[14] = synthetic peptide competing with biotinylated control peptide, read-out: IC50 0401
[15] = synthetic peptide competing with biotinylated control peptide, read-out: IC50 0801

## Asn13His: full-length lysostaphin single point mutant
[1]
  binder class DRB1*1301: weak (weak if an IC50 value was in the 1-10 μM range)

## GVDFFMNEGTPVHAISSGKIV [Design 41_46]
[2]
  IC50: < 10 nM
[3]
  IC50: < 0.01 µM
[1]
  IC50: > 250 µM
[4]
  IC50: > 250 µM
[5]
  IC50: > 250 µM
[6]
  IC50: < 10 nM
[7]
  IC50: < 0.01 µM

## SAQWLGNYKKGYGYG [Design N12G]
[2]; [9]
  IC50: > 250000 nM
[1]; [10]
  IC50: > 250 µM
[4]; [11]
  IC50: > 250 µM
[8]; [12]
  IC50: > 250 µM
[6]; [13]
  IC50: < 10 nM
[7]; [14]
  IC50: > 250 µM

## HLHFQRMVNSFGNPTAQ [Peptide S124G]
[2]; DRB1*1501, read-out: IC50
  IC50: < 10 nM
[1]; DRB1*1301, read-out: IC50
  IC50: > 250 µM
[4]; DRB1*0301, read-out: IC50
  IC50: > 250 µM
[5]; DRB1*0801, read-out: IC50
  IC50: > 250 µM
[6]; DRB1*0101, read-out: IC50
  IC50: < 10 nM

## DYVEAGQIIGWSGSTGY [Peptide K95E]
[2]
  IC50: < 10 nM
[6]
  IC50: < 10 nM
[7]
  IC50: < 0.01 µM

## GVDFFMNEGTPVKAISSGKIV [Design 141E]
[4]; [11]
  IC50: > 250 µM
[5]; [15]
  IC50: > 250 µM

## DHVEAGQQIGWSGSTGY [Peptide 939599]
[2]; DRB1*1501, read-out: IC50
  IC50: > 250000 nM
[3]; DRB1*1101, read-out: IC50
  IC50: > 250 µM
[1]; DRB1*1301, read-out: IC50
  IC50: > 250 µM
[4]; DRB1*0301, read-out: IC50
  IC50: > 250 µM
[5]; DRB1*0801, read-out: IC50
  IC50: > 250 µM
[6]; DRB1*0101, read-out: IC50
  IC50: > 250000 nM
[7]; DRB1*0401, read-out: IC50
  IC50: > 250 µM

## HLHFQRMVGSFSNPTAQ [Peptide N121G]
[2]
  IC50: < 10 nM
[3]; DRB1*1101, read-out: IC50
  IC50: 6.41 µM
[1]; DRB1*1301, read-out: IC50
  IC50: > 250 µM
[4]; DRB1*0301, read-out: IC50
  IC50: > 250 µM
[5]; DRB1*0801, read-out: IC50
  IC50: > 250 µM
[8]; DRB1*0701, read-out: IC50
  IC50: 17.4 µM
[6]; DRB1*0101, read-out: IC50
  IC50: < 10 nM
[7]; DRB1*0401, read-out: IC50
  IC50: 6.13 µM

## HLHFQRMVGDFGNPTAQ [Peptide 212224]
[2]
  IC50: 24200 nM
[3]
  IC50: 13.4 µM
[1]
  IC50: > 250 µM
[4]
  IC50: 116 µM
[5]
  IC50: > 250 µM
[8]
  IC50: > 250 µM
[6]
  IC50: 180 nM
[7]
  IC50: 5.55 µM

## CSCC[C@H](NC(=O)[C@H](Cc1ccc(O)cc1)NC(=O)[C@H](Cc1c[nH]c2ccccc12)NC(=O)[C@H](CCC(N)=O)NC(=O)[C@H](CCCNC(=N)N)NC(=O)[C@H](Cc1c[nH]cn1)NC(=O)[C@@H](NC(=O)CN)C(C)C)C(=O)N[C@@H](Cc1c[nH]cn1)C(=O)N[C@@H](CC(C)C)C(=O)N[C@@H](CO)C(=O)N[C@@H](CCCCN)C(=O)N[C@@H](Cc1ccc(O)cc1)C(=O)N[C@@H](CC(N)=O)C(=O)N[C@H](C(=O)N[C@@H](CCCCN)C(=O)N[C@H](C(=O)NCC(=O)N[C@@H](CC(=O)O)C(=O)O)C(C)C)C(C)C [Design C3WT]
[2]
  binder class DRB1*1501: weak (weak if an IC50 value was in the 1-10 μM range)
[1]
  binder class DRB1*1301: weakly
[8]
  binder class DRB1*0701: strong (strong binder if an IC50 value of less than 0.1 μM was observed)
[6]
  binder class DRB1*0101: strong (strong binder if an IC50 value of less than 0.1 μM was observed)

## Lys46His: full-length lysostaphin single point mutant
[6]
  fold decrease in binding vs wild-type peptide, 0101: two-fold

## SAQWLNHYKKGYGYG [Design N13H]
[2]; [9]
  IC50: > 250000 nM
[4]; [11]
  IC50: > 250 µM
[5]; [15]
  IC50: > 250 µM
[8]; [12]
  IC50: > 250 µM
[6]; [13]
  IC50: > 250000 nM
[7]; [14]
  IC50: > 250 µM

## Leu83Met: full-length lysostaphin single point mutant
[2]
  binder class DRB1*1501: moderate (moderate if an IC50 value was in the 0.1-1 μM range)
[3]
  fold reduction in binding vs wild-type peptide, 1101: ten-fold
[1]
  binder class DRB1*1301: weak (weak if an IC50 value was in the 1-10 μM range)
[4]
  binder class DRB1*0301: non-binder (All peptides above 10 μM were considered non-binders)
[5]
  fold decrease in binding vs wild-type peptide, 0801: approximately five-fold
[8]
  binder class DRB1*0701: moderate (moderate if an IC50 value was in the 0.1-1 μM range)
  fold decrease in binding vs wild-type peptide, 0701: two-fold
[6]
  binder class DRB1*0101: weak (weak if an IC50 value was in the 1-10 μM range)

## DHVKAGQIIGWSGSTGY [Peptide Y93H]
[2]
  IC50: < 10 nM
[3]
  IC50: > 250 µM
[1]
  IC50: > 250 µM
[4]
  IC50: > 250 µM
[5]
  IC50: > 250 µM
[7]
  IC50: > 250 µM

## DHVKAGQQIGWSGSTGY [Peptide 93_99]
[2]; DRB1*1501, read-out: IC50
  IC50: < 10 nM
[3]; DRB1*1101, read-out: IC50
  IC50: > 250 µM
[1]; DRB1*1301, read-out: IC50
  IC50: > 250 µM
[4]; DRB1*0301, read-out: IC50
  IC50: > 250 µM
[5]; DRB1*0801, read-out: IC50
  IC50: > 250 µM
[6]; DRB1*0101, read-out: IC50
  IC50: < 10 nM
[7]; DRB1*0401, read-out: IC50
  IC50: < 0.01 µM

## GVDFFMNIGTPVKAISSGKIV [Design C2WT]
[1]; [10]
  IC50: 104 µM
[5]; [15]
  IC50: > 250 µM
[7]; [14]
  IC50: 13.7 µM

## DYVKAGQQIGWSGSTGY [Peptide I99Q]
[1]
  IC50: > 250 µM
[4]
  IC50: > 250 µM
[5]
  IC50: > 250 µM

## HLHFQRMVNSFSNPTAQ [Design C5WT]
[2]; DRB1*1501, read-out: IC50
  IC50: < 10 nM
[3]; DRB1*1101, read-out: IC50
  IC50: < 0.01 µM
[1]; DRB1*1301, read-out: IC50
  IC50: > 250 µM
[4]; DRB1*0301, read-out: IC50
  IC50: > 250 µM
[5]; DRB1*0801, read-out: IC50
  IC50: 22 µM
[8]; DRB1*0701, read-out: IC50
  IC50: 15.2 µM
[7]; DRB1*0401, read-out: IC50
  IC50: 0.05 µM

## Tyr93His/Lys95Glu: cluster 4 synthetic peptide with Tyr93His and Lys95Glu (Table 15) (DHVEAGQIIGWSGSTGY)
[6]
  binder class DRB1*0101: moderate (moderate if an IC50 value was in the 0.1-1 μM range)

## GVHRQWYMHMSKYNVKVGD [Design L83M]
[7]; [14]
  IC50: > 250 µM

## Asn12Gly: full-length lysostaphin single point mutant
[6]
  binder class DRB1*0101: strong (strong binder if an IC50 value of less than 0.1 μM was observed)

## SAQWLNNYKKGYGYG [Design C1WT]
[2]; [9]
  IC50: 101000 nM
[4]; [11]
  IC50: > 250 µM
[5]; [15]
  IC50: 13.7 µM
[8]; [12]
  IC50: > 250 µM
[7]; [14]
  IC50: > 250 µM

## DYVEAGQQIGWSGSTGY [Peptide 95-99]
[2]; DRB1*1501, read-out: IC50
  IC50: < 10 nM
[1]; DRB1*1301, read-out: IC50
  IC50: > 250 µM
[4]; DRB1*0301, read-out: IC50
  IC50: > 250 µM
[5]; DRB1*0801, read-out: IC50
  IC50: > 250 µM
[8]; DRB1*0701, read-out: IC50
  IC50: 104 µM
[6]; DRB1*0101, read-out: IC50
  IC50: < 10 nM

## Tyr93His/Lys95Glu/Ile99Gln: cluster 4 synthetic peptide with three mutations (Table 15) (DHVEAGQQIGWSGSTGY)
[2]
  binder class DRB1*1501: weak/non-binder
[6]
  binder class DRB1*0101: weak or non-binder
